Test results reported in patent publication US11912693B2, “Compounds for modulating S1P1 activity and methods of using the same” (TREVENA, INC., priority 2017, dated 2024).

Key:
[1] = target: T1, human sphingosine-1-phosphate receptor 1 (S1P1) (Homo sapiens (Human), UniProt P21453); experiment: Inhibition of cAMP production (HTRF cAMP HiRange), S1P1 CHO-K1 cells; format: cell-based; details: for Emax: CHO-K1, efficacy (SPAN) normalized to fingolimod, read-out: hS1P1 cAMP SPAN
Procedure, shortened: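 CHO-K1 cells stably co-expressing human S1P1 (C-terminal Prolink tag) and EA-β-arrestin2 were grown in AssayComplete Media 6 at 37° C. and 5% CO2, plated, and incubated overnight. Agonist-driven inhibition of intracellular cAMP was read by TR-FRET with the HTRF cAMP HiRange kit on a PheraStar reader. Potency is pEC50, and efficacy (SPAN) is normalized to fingolimod.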
Target sequence in this assay (P21453 whole entry, looked up): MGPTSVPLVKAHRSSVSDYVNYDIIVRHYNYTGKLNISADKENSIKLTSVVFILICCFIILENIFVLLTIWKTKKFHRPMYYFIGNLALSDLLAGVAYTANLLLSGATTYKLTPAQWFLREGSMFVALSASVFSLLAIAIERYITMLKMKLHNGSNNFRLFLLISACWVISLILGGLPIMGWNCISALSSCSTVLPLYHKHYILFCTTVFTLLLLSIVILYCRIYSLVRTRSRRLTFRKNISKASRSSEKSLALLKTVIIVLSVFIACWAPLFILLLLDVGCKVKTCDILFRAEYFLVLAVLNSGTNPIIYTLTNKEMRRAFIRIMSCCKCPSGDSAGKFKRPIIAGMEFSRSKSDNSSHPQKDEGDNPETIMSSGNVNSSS

[2] = target: T1, human sphingosine-1-phosphate receptor 1 (S1P1); experiment: β-Arrestin2 recruitment assay (PathHunter), S1P1 CHO-K1 cells; format: cell-based; details: for Emax: CHO-K1, efficacy (SPAN) normalized to fingolimod, read-out: hS1P1 B-arrestin2 SPAN
Procedure, shortened: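 Enzyme-fragment complementation read-out: agonist-driven β-arrestin2 binding to ProLink-tagged human S1P1 in stable CHO-K1 cells restores β-galactosidase, measured 1 h at room temperature after a 60 min 37° C. compound incubation. Potency as pEC50, efficacy relative to fingolimod (SPAN).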
Target sequence in this assay (P21453 whole entry, looked up): as above
Target sequence in this assay (P32121 whole entry partner, looked up): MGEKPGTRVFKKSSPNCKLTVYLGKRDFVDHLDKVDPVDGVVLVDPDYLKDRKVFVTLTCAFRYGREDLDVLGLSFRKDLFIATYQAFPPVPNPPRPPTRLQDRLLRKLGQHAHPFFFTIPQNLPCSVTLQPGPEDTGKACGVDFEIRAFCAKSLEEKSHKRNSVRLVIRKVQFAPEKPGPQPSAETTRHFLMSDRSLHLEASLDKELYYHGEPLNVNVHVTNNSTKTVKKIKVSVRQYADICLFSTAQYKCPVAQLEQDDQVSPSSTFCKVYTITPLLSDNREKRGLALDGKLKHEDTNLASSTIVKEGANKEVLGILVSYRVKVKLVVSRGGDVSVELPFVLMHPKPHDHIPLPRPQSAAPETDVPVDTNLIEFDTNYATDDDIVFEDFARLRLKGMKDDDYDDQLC

[3] = inhibition of cAMP production, S1P1 CHO-K1 cells
[4] = β-arrestin2 recruitment, S1P1 CHO-K1 cells

Structure (SMILES) | hS1P1 cAMP pEC50 [1, 3] | hS1P1 B-arrestin2 pEC50 [2, 4] | Emax [1] [%] | Emax [2] [%] | EC50 ([1]; inhibition of cAMP production, S1P1 CHO-K1 cells, read-out: hS1P1 cAMP pEC50 (converted)) [µM] | EC50 ([2]; β-arrestin2 recruitment, S1P1 CHO-K1 cells, read-out: hS1P1 B-arrestin2 pEC50 (converted)) [µM]
CCC1(CC)CC(=O)c2cc(-c3nc(-c4ccnc(NS(C)(=O)=O)c4)no3)ccc2O1 [Compound 556, N-(4-(5-(2,2-diethyl-4-oxochroman-6-yl)-1,2,4-oxadiazol-3-yl)pyridin-2-yl)methanesulfonamide] | >6.5 | >5 | – | – | – | –
COc1ccc(-c2nc(-c3ccc4c(ccn4C(C)C)c3)no2)cc1 [Compound 393, 3-(1-isopropyl-1H-indol-5-yl)-5-(4-methoxyphenyl)-1,2,4-oxadiazole] | <6.5 | <5 | – | – | – | –
Cc1oc(-c2ccc3c(c2)nnn3C(C)C)nc1-c1ccccc1 [Compound 247, 5-(5-methyl-4-phenyl-1,3-oxazol-2-yl)-1-(propan-2-yl)-1H-1,2,3-benzotriazole] | <6.5 | <5 | < 75 | < 75 | – | –
N#Cc1cc(-c2nnc(-c3ccc4[nH]c(=O)oc4c3)o2)ccc1NCCF [Compound 487, 2-[(2-fluoroethyl)amino]-5-[5-(2-oxo-2,3-dihydro-1,3-benzoxazol-6-yl)-1,3,4-oxadiazol-2-yl]benzonitrile] | <6.5 | >5 | – | – | – | –
CC(C)n1nnc2cc(-c3noc(-c4ccc(C5CCCCC5)cc4)n3)ccc21 [Compound 290, 5-(4-cyclohexylphenyl)-3-(1-isopropyl-1H-benzo[d][1,2,3]triazol-5-yl)-1,2,4-oxadiazole] | <6.5 | <5 | < 75 | < 75 | – | –
FC(F)(F)c1cc(-c2noc(-c3ccc4c(c3)nnn4C3CCCC3)n2)ccc1OCc1cccnc1 [Compound 4, 1-cyclopentyl-5-{3-[4-(pyridin-3-ylmethoxy)-3-(trifluoromethyl)phenyl]-1,2,4-oxadiazol-5-yl}-1H-1,2,3-benzotriazole] | <6.5 | <5 | < 75 | < 75 | – | –
Cc1nc2cc(-c3nc(-c4ccc5c(c4)nnn5C(C)C)no3)ccc2[nH]1 [Compound 571, 5-[5-(2-methyl-1H-1,3-benzodiazol-5-yl)-1,2,4-oxadiazol-3-yl]-1-(propan-2-yl)-1H-1,2,3-benzotriazole] | >6.5 | >5 | – | – | – | –
CC(=O)Nc1ccc(-c2noc(-c3ccc(NC(C)C)c(C#N)c3)n2)cc1 [Compound 316, N-(4-(5-(3-cyano-4-(isopropylamino)phenyl)-1,2,4-oxadiazol-3-yl)phenyl)acetamide] | >6.5 | <5 | > 75 | < 75 | – | –
O=C(O)CCn1nnc2cc(-c3noc(-c4ccccc4Br)n3)ccc21 [Compound 134, 3-(5-(5-(2-bromophenyl)-1,2,4-oxadiazol-3-yl)-1H-benzo[d][1,2,3]triazol-1-yl)propanoic acid] | <6.5 | <5 | < 75 | < 75 | – | –
CC(C)n1nnc2cc(-c3nc4c(ccc5sccc54)o3)ccc21 [Compound 457, 4-[1-(propan-2-yl)-1H-1,2,3-benzotriazol-5-yl]-5-oxa-10-thia-3-azatricyclo[7.3.0.0^2,6]dodeca-1(9),2(6),3,7,11-pentaene] | >6.5 | <5 | > 75 | > 75 | – | –
CC(C)n1nnc2cc(-c3nc(-c4ccccc4C(F)(F)F)co3)ccc21 [Compound 432, 1-(propan-2-yl)-5-{4-[2-(trifluoromethyl)phenyl]-1,3-oxazol-2-yl}-1H-1,2,3-benzotriazole] | >6.5 | >5 | > 75 | > 75 | – | –
COc1ccccc1-c1noc(-c2ccc3c(ccn3C(C)C)c2)n1 [Compound 372, 5-(1-isopropyl-1H-indol-5-yl)-3-(2-methoxyphenyl)-1,2,4-oxadiazole] | >6.5 | >5 | – | – | – | –
CCC1(CC)CC(=O)c2cc(-c3nsc(-c4cccnc4)n3)ccc2O1 [Compound 137, 2,2-diethyl-6-(5-(pyridin-3-yl)-1,2,4-thiadiazol-3-yl)chroman-4-one] | >6.5 | <5 | > 75 | > 75 | – | –
CCC1(CC)CC(=O)c2cc(-c3nc(-c4ccc5ncoc5c4)no3)ccc2O1 [Compound 622, 6-(3-(benzo[d]oxazol-6-yl)-1,2,4-oxadiazol-5-yl)-2,2-diethylchroman-4-one] | >6.5 | <5 | – | – | – | –
COc1ccccc1-c1nc(-c2ccc3c(c2)nnn3CC(C)(C)CO)no1 [Compound 525, 3-(5-(5-(2-methoxyphenyl)-1,2,4-oxadiazol-3-yl)-1H-benzo[d][1,2,3]triazol-1-yl)-2,2-dimethylpropan-1-ol] | <6.5 | <5 | – | – | – | –
COc1ccccc1-c1nnc(-c2ccc3c(c2)c(=O)on3C)o1 [Compound 340, 5-[5-(2-methoxyphenyl)-1,3,4-oxadiazol-2-yl]-1-methyl-1,3-dihydro-2,1-benzoxazol-3-one] | <6.5 | <5 | – | – | – | –
Cc1nccnc1-c1nc(-c2ccc3c(c2)nnn3CC(C)(C)CO)no1 [Compound 540, 2,2-dimethyl-3-(5-(5-(3-methylpyrazin-2-yl)-1,2,4-oxadiazol-3-yl)-1H-benzo[d][1,2,3]triazol-1-yl)propan-1-ol] | <6.5 | <5 | – | – | – | –
CC(C)n1nnc2cc(-c3nc4c(o3)-c3ccccc3CC4)ccc21 [Compound 297, 5-{4H,5H-naphtho[2,1-d][1,3]oxazol-2-yl}-1-(propan-2-yl)-1H-1,2,3-benzotriazole] | <6.5 | <5 | > 75 | > 75 | – | –
COc1cccc(-c2cnc(-c3ccc4c(c3)nnn4C(C)C)s2)c1 [Compound 108, 2-(1-isopropyl-1H-benzo[d][1,2,3]triazol-5-yl)-5-(3-methoxyphenyl)thiazole] | >6.5 | <5 | < 75 | < 75 | – | –
COc1ccccc1-c1noc(-c2ccc3c(c2)nnn3C(C)C)n1 [Compound 286, 5-(1-isopropyl-1H-benzo[d][1,2,3]triazol-5-yl)-3-(2-methoxyphenyl)-1,2,4-oxadiazole] | >6.5 | >5 | > 75 | > 75 | – | –
CC(C)n1ncc2cc(-c3nc(-c4ccccc4O)no3)ccc21 [Compound 333, 2-(5-(1-isopropyl-1H-indazol-5-yl)-1,2,4-oxadiazol-3-yl)phenol] | >6.5 | <5 | > 75 | > 75 | – | –
CCC1(CC)CC(=O)c2cc(-c3nc(-c4ccc(S(=O)(=O)N(C)C)cc4)no3)ccc2O1 [Compound 30, 4-(5-(2,2-diethyl-4-oxochroman-6-yl)-1,2,4-oxadiazol-3-yl)-N,N-dimethylbenzenesulfonamide] | <6.5 | <5 | – | – | – | –
CCC1(CC)CC(=O)c2cc(-c3nc(-c4cnccc4OC)no3)ccc2O1 [Compound 303, 2,2-diethyl-6-(3-(4-methoxypyridin-3-yl)-1,2,4-oxadiazol-5-yl)chroman-4-one] | <6.5 | <5 | > 75 | > 75 | – | –
Cc1ccsc1-c1noc(-c2ccc3c(c2)nnn3C(C)(C)C)n1 [Compound 253, 1-tert-butyl-5-[3-(3-methylthiophen-2-yl)-1,2,4-oxadiazol-5-yl]-1H-1,2,3-benzotriazole] | – | – | > 75 | > 75 | < 0.316 | < 10
CC(C)n1nnc2cc(C(=O)Nc3noc4ccccc34)ccc21 [Compound 181, N-(benzo[d]isoxazol-3-yl)-1-isopropyl-1H-benzo[d][1,2,3]triazole-5-carboxamide] | <6.5 | <5 | > 75 | > 75 | – | –
CC(C)n1ccc2cc(-c3noc(-c4ccc(F)cc4)n3)ccc21 [Compound 400, 5-(4-fluorophenyl)-3-(1-isopropyl-1H-indol-5-yl)-1,2,4-oxadiazole] | <6.5 | <5 | – | – | – | –
CC(C)n1nnc2cc(-c3nc(-c4ccccc4O)no3)ccc21 [Compound 180, 2-(5-(1-isopropyl-1H-benzo[d][1,2,3]triazol-5-yl)-1,2,4-oxadiazol-3-yl)phenol] | <6.5 | <5 | – | – | – | –
CCC1(CC)CC(=O)c2cc(-c3nc(-c4ccc5nonc5c4)no3)ccc2O1 [Compound 500, 6-[3-(2,1,3-benzoxadiazol-5-yl)-1,2,4-oxadiazol-5-yl]-2,2-diethyl-3,4-dihydro-2H-1-benzopyran-4-one] | <6.5 | <5 | – | – | – | –
CCC1(CC)CC(=O)c2cc(-c3nc(-c4ccoc4)no3)ccc2O1 [Compound 495, 2,2-diethyl-6-(3-(furan-3-yl)-1,2,4-oxadiazol-5-yl)chroman-4-one] | >6.5 | >5 | – | – | – | –
